Key:
[1] = biological target: Serine/threonine-protein kinase tousled-like 2 (Homo sapiens) (UniProt Q86UE8); assay: Inhibition of T7 bacteriophage fused human TLK2 at 10 uM by KINOMEscan analysis relative to control
[2] = biological target: Serine/threonine-protein kinase SIK2 (Homo sapiens) (UniProt Q9H0K1); assay: Inhibition of T7 bacteriophage fused human SIK2 at 10 uM by KINOMEscan analysis relative to control
[3] = biological target: Tyrosine-protein kinase TXK (Homo sapiens) (UniProt P42681); assay: Inhibition of T7 bacteriophage fused human TXK at 10 uM by KINOMEscan analysis relative to control
[4] = biological target: Mitogen-activated protein kinase kinase kinase 12 (Homo sapiens) (UniProt Q12852); assay: Inhibition of T7 bacteriophage fused human DLK at 10 uM by KINOMEscan analysis relative to control; values are per cent of control
[5] = biological target: T1, Dual specificity protein kinase TTK (Homo sapiens) (UniProt P33981); assay: Inhibition of T7 bacteriophage fused human TTK at 10 uM by KINOMEscan analysis relative to control
T1 sequence (whole entry): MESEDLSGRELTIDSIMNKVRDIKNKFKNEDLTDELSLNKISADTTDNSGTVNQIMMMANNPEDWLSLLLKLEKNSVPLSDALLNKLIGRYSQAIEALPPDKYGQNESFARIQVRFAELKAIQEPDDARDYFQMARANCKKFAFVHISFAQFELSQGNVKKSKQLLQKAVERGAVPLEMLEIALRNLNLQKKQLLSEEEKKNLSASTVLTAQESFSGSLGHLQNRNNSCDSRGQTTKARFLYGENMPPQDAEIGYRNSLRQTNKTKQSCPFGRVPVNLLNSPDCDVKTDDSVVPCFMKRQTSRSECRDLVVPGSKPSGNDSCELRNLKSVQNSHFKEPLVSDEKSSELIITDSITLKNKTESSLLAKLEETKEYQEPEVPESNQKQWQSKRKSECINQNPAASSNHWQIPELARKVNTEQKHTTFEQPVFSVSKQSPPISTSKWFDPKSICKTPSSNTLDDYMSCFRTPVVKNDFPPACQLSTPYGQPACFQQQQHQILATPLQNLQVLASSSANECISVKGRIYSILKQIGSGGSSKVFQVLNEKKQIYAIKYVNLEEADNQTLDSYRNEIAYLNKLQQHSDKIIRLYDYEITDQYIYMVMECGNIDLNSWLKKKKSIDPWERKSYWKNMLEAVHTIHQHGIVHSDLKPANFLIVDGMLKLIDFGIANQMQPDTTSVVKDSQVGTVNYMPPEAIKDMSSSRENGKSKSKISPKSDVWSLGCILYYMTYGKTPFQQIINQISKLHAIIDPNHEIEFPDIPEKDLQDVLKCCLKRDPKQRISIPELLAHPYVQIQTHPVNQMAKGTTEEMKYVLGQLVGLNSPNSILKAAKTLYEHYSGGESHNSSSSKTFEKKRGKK

[6] = biological target: Serine/threonine-protein kinase SIK1 (Homo sapiens) (UniProt P57059); assay: Inhibition of T7 bacteriophage fused human SIK at 10 uM by KINOMEscan analysis relative to control
[7] = biological target: Cyclin-dependent kinase 2 homolog (Plasmodium falciparum (isolate K1 / Thailand)) (UniProt Q07785); assay: Inhibition of T7 bacteriophage fused Plasmodium falciparum PK5 at 10 uM by KINOMEscan analysis relative to control
[8] = biological target: Tyrosine-protein kinase Tec (Homo sapiens) (UniProt P42680); assay: Inhibition of T7 bacteriophage fused human TEC at 10 uM by KINOMEscan analysis relative to control
[9] = biological target: Cyclin-dependent kinase 11B (Homo sapiens) (UniProt P21127); assay: Inhibition of T7 bacteriophage fused human CDC2L1 at 10 uM by KINOMEscan analysis relative to control
[10] = biological target: Transient receptor potential cation channel subfamily M member 6 (Homo sapiens) (UniProt Q9BX84); assay: Inhibition of T7 bacteriophage fused human TRPM6 at 10 uM by KINOMEscan analysis relative to control
[11] = biological target: Calcium/calmodulin-dependent protein kinase type 1D (Homo sapiens) (UniProt Q8IU85); assay: Inhibition of T7 bacteriophage fused human CAMK1D at 10 uM by KINOMEscan analysis relative to control
[12] = biological target: Cyclin-dependent kinase 11B (Homo sapiens) (UniProt P21127); assay: Inhibition of T7 bacteriophage fused human CDK11 at 10 uM by KINOMEscan analysis relative to control
[13] = biological target: Tyrosine-protein kinase Srms (Homo sapiens) (UniProt Q9H3Y6); assay: Inhibition of T7 bacteriophage fused human SRMS at 10 uM by KINOMEscan analysis relative to control
[14] = biological target: Dual specificity mitogen-activated protein kinase kinase 5 (Homo sapiens) (UniProt Q13163); assay: Inhibition of T7 bacteriophage fused human MEK5 at 10 uM by KINOMEscan analysis relative to control; values are per cent of control
[15] = biological target: Citron Rho-interacting kinase (Homo sapiens) (UniProt O14578); assay: Inhibition of T7 bacteriophage fused human CIT at 10 uM by KINOMEscan analysis relative to control; values are per cent of control
[16] = biological target: Non-receptor tyrosine-protein kinase TYK2 (Homo sapiens) (UniProt P29597); assay: Inhibition of T7 bacteriophage fused human TYK2 JH1 catalytic domain at 10 uM by KINOMEscan analysis relative to control
[17] = biological target: Ephrin type-A receptor 6 (Homo sapiens) (UniProt Q9UF33); assay: Inhibition of T7 bacteriophage fused human EPHA6 at 10 uM by KINOMEscan analysis relative to control
[18] = biological target: Mitogen-activated protein kinase kinase kinase 1 (Homo sapiens) (UniProt Q13233); assay: Inhibition of T7 bacteriophage fused human MAP3K1 at 10 uM by KINOMEscan analysis relative to control; values are per cent of control
[19] = biological target: Mitogen-activated protein kinase kinase kinase 2 (Homo sapiens) (UniProt Q9Y2U5); assay: Inhibition of T7 bacteriophage fused human MAP3K2 at 10 uM by KINOMEscan analysis relative to control; values are per cent of control
[20] = biological target: Leucine-rich repeat serine/threonine-protein kinase 2 (Homo sapiens) (UniProt Q5S007); assay: Inhibition of T7 bacteriophage fused human LRRK2 at 10 uM by KINOMEscan analysis relative to control; values are per cent of control
[21] = biological target: Serine/threonine-protein kinase MRCK beta (Homo sapiens) (UniProt Q9Y5S2); assay: Inhibition of T7 bacteriophage fused human MRCKB at 10 uM by KINOMEscan analysis relative to control
[22] = biological target: Rhodopsin kinase GRK1 (Homo sapiens) (UniProt Q15835); assay: Inhibition of T7 bacteriophage fused human GRK1 at 10 uM by KINOMEscan analysis relative to control; values are per cent of control

Chain of Cyclin-dependent kinase 11B (Homo sapiens) (P21127 whole entry, the tested form may be a part): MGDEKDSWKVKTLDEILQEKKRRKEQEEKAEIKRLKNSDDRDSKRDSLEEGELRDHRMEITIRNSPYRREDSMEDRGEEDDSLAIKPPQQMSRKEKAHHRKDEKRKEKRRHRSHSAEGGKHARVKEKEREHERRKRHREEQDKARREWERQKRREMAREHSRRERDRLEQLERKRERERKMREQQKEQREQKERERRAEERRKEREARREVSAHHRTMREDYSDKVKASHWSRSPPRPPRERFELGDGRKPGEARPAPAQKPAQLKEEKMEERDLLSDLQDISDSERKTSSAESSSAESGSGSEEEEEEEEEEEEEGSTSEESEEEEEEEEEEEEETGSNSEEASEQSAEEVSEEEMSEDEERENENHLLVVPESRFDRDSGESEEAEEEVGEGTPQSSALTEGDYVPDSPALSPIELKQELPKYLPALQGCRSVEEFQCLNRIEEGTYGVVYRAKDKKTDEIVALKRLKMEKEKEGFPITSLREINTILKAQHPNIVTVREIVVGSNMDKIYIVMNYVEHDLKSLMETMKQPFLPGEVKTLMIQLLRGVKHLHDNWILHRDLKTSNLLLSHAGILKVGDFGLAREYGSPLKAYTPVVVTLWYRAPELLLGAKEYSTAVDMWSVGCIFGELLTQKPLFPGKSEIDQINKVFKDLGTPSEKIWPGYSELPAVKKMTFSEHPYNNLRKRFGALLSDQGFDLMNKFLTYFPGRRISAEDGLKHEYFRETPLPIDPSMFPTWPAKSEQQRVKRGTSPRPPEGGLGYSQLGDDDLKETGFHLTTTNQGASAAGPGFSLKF
Chain of Tyrosine-protein kinase TXK (Homo sapiens) (P42681 whole entry, the tested form may be a part): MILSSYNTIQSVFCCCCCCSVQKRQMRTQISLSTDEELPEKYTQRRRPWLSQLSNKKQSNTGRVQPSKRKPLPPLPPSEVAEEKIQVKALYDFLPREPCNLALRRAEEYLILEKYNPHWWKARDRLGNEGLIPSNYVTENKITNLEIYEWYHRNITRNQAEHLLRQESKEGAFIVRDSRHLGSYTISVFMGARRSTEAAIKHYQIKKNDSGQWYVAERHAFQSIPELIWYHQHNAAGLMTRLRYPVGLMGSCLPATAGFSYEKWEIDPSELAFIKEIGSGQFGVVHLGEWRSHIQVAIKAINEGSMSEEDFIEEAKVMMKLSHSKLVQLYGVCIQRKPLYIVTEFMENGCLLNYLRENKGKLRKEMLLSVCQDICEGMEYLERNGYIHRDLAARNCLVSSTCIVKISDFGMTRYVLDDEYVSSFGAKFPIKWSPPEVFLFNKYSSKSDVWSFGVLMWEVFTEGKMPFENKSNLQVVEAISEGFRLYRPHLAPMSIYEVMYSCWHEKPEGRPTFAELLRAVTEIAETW
Chain of Transient receptor potential cation channel subfamily M member 6 (Homo sapiens) (Q9BX84 whole entry, the tested form may be a part): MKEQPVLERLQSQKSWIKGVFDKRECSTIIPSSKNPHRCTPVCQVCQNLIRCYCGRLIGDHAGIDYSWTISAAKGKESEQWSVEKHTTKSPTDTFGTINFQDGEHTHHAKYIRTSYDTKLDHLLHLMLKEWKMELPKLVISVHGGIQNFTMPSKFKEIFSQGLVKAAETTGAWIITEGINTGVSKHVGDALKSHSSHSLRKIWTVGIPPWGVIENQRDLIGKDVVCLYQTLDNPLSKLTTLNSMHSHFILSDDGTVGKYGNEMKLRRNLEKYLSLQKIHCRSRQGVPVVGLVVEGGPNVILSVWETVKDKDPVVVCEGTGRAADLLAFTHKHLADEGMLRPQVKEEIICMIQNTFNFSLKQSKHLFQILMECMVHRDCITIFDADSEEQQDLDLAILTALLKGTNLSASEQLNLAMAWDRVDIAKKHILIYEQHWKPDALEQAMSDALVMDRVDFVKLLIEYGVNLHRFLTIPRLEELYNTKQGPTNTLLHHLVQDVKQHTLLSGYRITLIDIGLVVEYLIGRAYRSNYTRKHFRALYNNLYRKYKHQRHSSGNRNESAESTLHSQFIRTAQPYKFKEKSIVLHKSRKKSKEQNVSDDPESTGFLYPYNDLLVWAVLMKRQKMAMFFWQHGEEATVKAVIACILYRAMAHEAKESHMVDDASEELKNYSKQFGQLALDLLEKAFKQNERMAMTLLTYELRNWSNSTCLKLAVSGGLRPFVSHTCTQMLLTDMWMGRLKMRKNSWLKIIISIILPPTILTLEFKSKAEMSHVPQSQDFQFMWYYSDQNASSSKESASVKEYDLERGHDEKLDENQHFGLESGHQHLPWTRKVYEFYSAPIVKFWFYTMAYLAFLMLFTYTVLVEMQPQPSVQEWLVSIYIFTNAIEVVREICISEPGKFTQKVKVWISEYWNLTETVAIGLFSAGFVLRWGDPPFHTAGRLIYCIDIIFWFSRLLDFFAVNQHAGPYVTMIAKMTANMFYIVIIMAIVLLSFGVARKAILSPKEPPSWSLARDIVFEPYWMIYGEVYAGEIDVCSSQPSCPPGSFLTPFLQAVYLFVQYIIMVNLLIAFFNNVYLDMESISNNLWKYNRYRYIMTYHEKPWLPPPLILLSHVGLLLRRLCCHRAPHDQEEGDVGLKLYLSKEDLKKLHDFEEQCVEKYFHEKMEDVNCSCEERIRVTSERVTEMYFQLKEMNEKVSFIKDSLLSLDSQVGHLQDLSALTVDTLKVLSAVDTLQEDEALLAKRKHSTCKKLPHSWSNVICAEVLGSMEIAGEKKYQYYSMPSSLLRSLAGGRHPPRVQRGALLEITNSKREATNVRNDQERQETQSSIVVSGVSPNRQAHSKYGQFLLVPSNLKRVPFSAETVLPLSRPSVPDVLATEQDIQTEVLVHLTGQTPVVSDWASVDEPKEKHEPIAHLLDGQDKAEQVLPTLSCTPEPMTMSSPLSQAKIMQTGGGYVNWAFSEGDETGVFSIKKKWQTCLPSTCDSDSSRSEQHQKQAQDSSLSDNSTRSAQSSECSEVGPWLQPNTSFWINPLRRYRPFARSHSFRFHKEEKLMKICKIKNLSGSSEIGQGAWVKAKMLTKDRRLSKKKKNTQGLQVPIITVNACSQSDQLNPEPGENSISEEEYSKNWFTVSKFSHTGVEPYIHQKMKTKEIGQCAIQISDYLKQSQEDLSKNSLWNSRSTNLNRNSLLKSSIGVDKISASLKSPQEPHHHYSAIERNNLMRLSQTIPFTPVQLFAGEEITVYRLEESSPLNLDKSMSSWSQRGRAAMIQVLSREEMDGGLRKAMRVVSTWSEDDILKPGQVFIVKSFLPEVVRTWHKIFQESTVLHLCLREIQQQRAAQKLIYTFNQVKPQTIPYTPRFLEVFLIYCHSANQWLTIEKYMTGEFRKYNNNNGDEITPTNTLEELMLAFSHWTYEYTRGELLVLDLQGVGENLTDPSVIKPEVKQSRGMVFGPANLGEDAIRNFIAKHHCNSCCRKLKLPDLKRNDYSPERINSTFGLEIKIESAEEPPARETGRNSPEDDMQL
Chain of Serine/threonine-protein kinase SIK1 (Homo sapiens) (P57059 whole entry, the tested form may be a part): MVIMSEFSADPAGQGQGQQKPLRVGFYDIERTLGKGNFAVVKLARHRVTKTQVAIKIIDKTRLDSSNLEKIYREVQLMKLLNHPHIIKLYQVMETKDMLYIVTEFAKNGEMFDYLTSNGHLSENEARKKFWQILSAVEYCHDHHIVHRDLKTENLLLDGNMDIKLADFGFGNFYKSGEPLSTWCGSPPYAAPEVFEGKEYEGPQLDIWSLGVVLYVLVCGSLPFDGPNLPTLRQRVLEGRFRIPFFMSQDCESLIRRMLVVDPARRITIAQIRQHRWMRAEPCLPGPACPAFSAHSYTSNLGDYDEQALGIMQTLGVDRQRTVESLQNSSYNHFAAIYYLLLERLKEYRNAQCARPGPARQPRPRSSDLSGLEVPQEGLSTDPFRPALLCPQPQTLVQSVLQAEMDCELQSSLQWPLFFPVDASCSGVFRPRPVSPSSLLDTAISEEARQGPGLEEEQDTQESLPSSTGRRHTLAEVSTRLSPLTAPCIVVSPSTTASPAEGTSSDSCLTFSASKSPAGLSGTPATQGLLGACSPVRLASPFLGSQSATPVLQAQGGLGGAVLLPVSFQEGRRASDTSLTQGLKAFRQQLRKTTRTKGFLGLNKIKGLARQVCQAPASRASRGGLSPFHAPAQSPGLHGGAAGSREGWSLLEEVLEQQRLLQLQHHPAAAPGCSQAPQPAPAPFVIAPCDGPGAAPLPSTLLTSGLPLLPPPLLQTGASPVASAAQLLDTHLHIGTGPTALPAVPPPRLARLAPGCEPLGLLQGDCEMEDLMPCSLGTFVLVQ
Chain of Mitogen-activated protein kinase kinase kinase 12 (Homo sapiens) (Q12852 whole entry, looked up, the tested form may be a part): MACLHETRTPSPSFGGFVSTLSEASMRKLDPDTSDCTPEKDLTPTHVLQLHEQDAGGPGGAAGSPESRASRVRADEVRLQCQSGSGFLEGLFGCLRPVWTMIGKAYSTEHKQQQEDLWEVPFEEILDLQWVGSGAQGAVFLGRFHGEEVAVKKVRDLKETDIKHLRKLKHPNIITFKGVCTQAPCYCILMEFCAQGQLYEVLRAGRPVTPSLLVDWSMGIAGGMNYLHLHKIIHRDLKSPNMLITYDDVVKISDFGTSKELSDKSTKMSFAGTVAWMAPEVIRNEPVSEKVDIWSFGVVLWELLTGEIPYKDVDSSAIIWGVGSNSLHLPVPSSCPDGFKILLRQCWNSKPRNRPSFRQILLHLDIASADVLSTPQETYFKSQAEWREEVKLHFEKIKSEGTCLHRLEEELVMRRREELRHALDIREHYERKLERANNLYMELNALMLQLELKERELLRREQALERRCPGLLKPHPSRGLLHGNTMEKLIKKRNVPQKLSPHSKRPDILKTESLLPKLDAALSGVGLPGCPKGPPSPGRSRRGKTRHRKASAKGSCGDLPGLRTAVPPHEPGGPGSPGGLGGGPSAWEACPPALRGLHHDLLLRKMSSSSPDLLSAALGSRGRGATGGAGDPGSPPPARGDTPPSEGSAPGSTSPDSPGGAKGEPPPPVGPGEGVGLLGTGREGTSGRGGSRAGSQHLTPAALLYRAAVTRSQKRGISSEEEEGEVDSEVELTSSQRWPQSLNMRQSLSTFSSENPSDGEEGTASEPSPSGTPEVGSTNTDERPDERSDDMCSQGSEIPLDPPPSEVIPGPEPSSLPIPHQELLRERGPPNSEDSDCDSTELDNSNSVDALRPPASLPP

Row | SMILES | inhibition [1] | inhibition [2] | inhibition [3] | residual activity [4] | inhibition [5] | inhibition [6] | inhibition [7] | inhibition [8] | inhibition [10] | inhibition [13] | inhibition [16] | further results
1 | CCOc1cc(C(=O)N2CCC(N3CCN(C)CC3)CC2)ccc1Nc1ncc2c(n1)N(C1CCCC1)c1ccccc1C(=O)N2C | 100% | 100% | 100% | 100% | 49% | 100% | 100% | 100% |  |  |  | 
2 | COc1cc(N2CCC(N3CCN(C)CC3)CC2)ccc1Nc1ncc2c(n1)N(C)c1ccccc1C(=O)N2C | 99% | 98% | 91% | 81% | 28% | 77% | 100% | 100% | 100% | 77% | 52% | inhibition [9]: 84%; inhibition [11]: 69%; inhibition [12]: 100%; residual activity [14]: 85%; residual activity [15]: 99%; inhibition [17]: 89%; residual activity [18]: 95%; residual activity [19]: 97%; residual activity [20]: 0%; inhibition [21]: 100%; residual activity [22]: 91%
3 | COc1cc(C(=O)N2CCC(N3CCN(C)CC3)CC2)ccc1Nc1ncc2c(n1)N(C1CCCC1)c1ccccc1C(=O)N2C |  |  |  |  |  |  |  |  | 100% | 100% | 100% | 

Source: ChEMBL document CHEMBL5678810
